For one experiment, the system named is SW620 (ATCC-CCL-227). As to the kind of experiment: Cell viability assay, G12V (SW620). In kind it is cell-based, human. The note with it: KRAS cell viability, SW620, 72 hrs, Cell Counting Kit-8. How it is done: (§1) The purpose of this cellular assay was to determine the effects of test compounds on the proliferation of human cancer cell lines NCI-H358 (ATCC-CRL5807) cells, AGS (ATCC-CRL-1739) cells, SW620 (ATCC-CCL-227) over a 3-day treatment period by quantifying the amount of NADPH present at endpoint using Cell Counting Kit-8.
(§2) Cells were seeded at 5,000 cells/well (NCI-H358), 2,000 cells/well (AGS) 2,000 cells/well (SW620) in 96-well assay plates (Corning-3699) and incubated overnight. On the day of the assay, diluted compounds were then added in a final concentration of 0.5% DMSO. After 72 hrs incubation, a tenth of the volume of cell counting kit 8 (Dnjindo-CK04) was added into each well. Read the signal (OD450 minus OD650) using EnVision after 2 hrs incubation. IC50 was determined by fitting a 4-parameter sigmoidal concentration response model.

Experiment [1] addresses KRAS G12V binding to BRAF (Homo sapiens (Human), UniProt P01116+P62937, G12V). The experiment is described as follows: KRAS-BRAF with CYPA (500 nM) interaction assay (TR-FRET), G12V. In kind it is biochemical. As for the experimental part: In this example, TR-FRET was also used to measure the compound or compound-CYPA dependent disruption of the KRAS G12C-BRAF complex. This protocol was also used to measure disruption of KRAS G12D or KRAS G12V binding to BRAF by a compound of the invention, respectively. In assay buffer containing 25 mM HEPES PH=7.4 (4-(2-hydroxyethyl)-1-piperazineethanesulfonic acid, Thermo, 15630080), 0.002% Tween20, 0.1% BSA, 100 mM NaCl, 5 mM MgCl2, 10 μM GMPPNP (Guanosine 5′-[β,γ-imido]triphosphate trisodium salt hydrate, Sigma, G0635), […], GMPPNP loaded 6His-KRAS proteins, and […], 6.25 nM and 1 nM, respectively. Compound was present in plate wells as a 16-point 3-fold dilution series starting at a final concentration of 10 μM and incubated for 3 hours. A mixture of MAb Anti-6His-XL665 (Cisbio, 61HISXLB) and Mab anti-GST-TB cryptate (Cisbio, 61GSTTLB) was then added at a final concentration of 6.67 nM and 0.21 nM, respectively, and the plate was incubated for an additional 1.5 hours. TR-FRET signal was read on a PHERstar FSX microplate reader (Ex320 nm, Em 665/615 nm). Compounds that facilitate disruption of the KRAS-BRAF complex were identified as those eliciting a decrease in the TR-FRET ratio relative to DMSO control wells.

Experiment [2] deals with NCI-H358 (ATCC-CRL5807) cells. The experiment is described as follows: Cell viability assay, G12C (NCI-H358). In kind it is cell-based, human. The note with it: KRAS cell viability, NCI-H358, 72 hrs, Cell Counting Kit-8. How it is done:
as §1, §2

In experiment [3] the test system is AGS (ATCC-CRL-1739) cells. The experiment is described as follows: Cell viability assay, G12D (AGS). In kind it is cell-based, human. The note with it: KRAS cell viability, 72 hrs, Cell Counting Kit-8. As for the experimental part:
as §1, §2

Experiment [4] addresses KRAS G12D binding to BRAF (Homo sapiens (Human), UniProt P01116+P62937, G12D). As to the kind of experiment: KRAS-BRAF with CYPA (500 nM) interaction assay (TR-FRET), G12D. It counts as biochemical. As for the experimental part:
(§3) In this example, TR-FRET was also used to measure the compound or compound-CYPA dependent disruption of the KRAS G12C-BRAF complex. This protocol was also used to measure disruption of KRAS G12D or KRAS G12V binding to BRAF by a compound of the invention, respectively. In assay buffer containing 25 mM HEPES PH=7.4 (4-(2-hydroxyethyl)-1-piperazineethanesulfonic acid, Thermo, 15630080), 0.002% Tween20, 0.1% BSA, 100 mM NaCl, 5 mM MgCl2, 10 μM GMPPNP (Guanosine 5′-[β,γ-imido]triphosphate trisodium salt hydrate, Sigma, G0635), […] 384-well assay plate at final concentrations of 50 nM, 6.25 nM and 1 nM, respectively. Compound was present in plate wells as a 16-point 3-fold dilution series starting at a final concentration of 10 μM and incubated for 3 hours. A mixture of MAb Anti-6His-XL665 (Cisbio, 61HISXLB) and Mab anti-GST-TB cryptate (Cisbio, 61GSTTLB) was then added at a final concentration of 6.67 nM and 0.21 nM, respectively, and the plate was incubated for an additional 1.5 hours. TR-FRET signal was read on a PHERstar FSX microplate reader (Ex320 nm, Em 665/615 nm). Compounds that facilitate disruption of the KRAS-BRAF complex were identified as those eliciting a decrease in the TR-FRET ratio relative to DMSO control wells.

The test system of experiment [5] is phosphorylation of ERK, KRAS G12V in SW620. The experiment is described as follows: pERK inhibition assay, KRAS G12V. It counts as cell-based, human. As for the experimental part:
(§4) This assay is to measure the ability of test compounds in inhibiting the phosphorylation of ERK, the downstream signaling of KRAS G12C in NCJ-H358 cells, KRAS G12D in AGS cells, and KRAS G12V in SW620. NCJ-H358 (ATCC-CRL5807) cells, AGS (ATCC-CRL-1739) cells, SW620 (ATCC-CCL-227) cells were all grown and maintained using RPMI-1640 medium (Thermo Fisher Scientific) with 10% fetal bovine serum and 1% penicillin/streptomycin. On the day prior to compound addition, cells were plated in tissue culture-treated 96 well plates (Corning-3699) at a density of 30,000 cell/well, 20,000 cell/well, 30,000 cell/well for NCJ-H358, AGS and SW620 respectively, and allowed for attachment overnight. Diluted compounds were then added in a final concentration of 0.5% DMSO. After 4 hours of incubation, the medium was removed, 100 μL of 4% formaldehyde was added, and the assay plates were incubated at room temperature for 20 minutes. The plates were then washed once with phosphate buffered saline (PBS), and permeabilized with 100 μL of chilled methanol for 10 minutes. Non-specific antibody binding to the plates was blocked using 50 μL 1×BSA blocking buffer (Thermo-37520, 10-fold dilution by Phosphate-Buffered Saline Tween (PBST) for at least 1 hour at room temperature.
(§5) The amount of phosphor-ERK was determined using an antibody specific for phosphorylated form of ERK. Primary antibody (pERK, CST-4370, Cell Signaling Technology) was diluted 1:300 in blocking buffer, with 50 μL aliquoted to each well, and incubated overnight at 4′° C. Cells was washed five times for 5 minutes with PBST. Secondary antibody ([…] anti-rabbit IgG, CST-7074, Cell Signaling Technology) was diluted 1:1000 in blocking buffer, and 50 μL was added to each well and incubated 1-2 hrs at room temperature. Cells was washed 5 times for 5 minutes with PBST, 100 μL TMB ELISA substrate (abcam-ab171523) were added and gently shake for 20 minutes. 50 μL stop solution (abcam-ab171529) were added, and then read the signal (OD450) by EnVision.
(§6) IC50 was determined by fitting a 4-parameter sigmoidal concentration response model.

Another experiment deals with KRAS G12C-BRAF complex (Homo sapiens (Human), UniProt P01116+P62937, G12C). The experiment is described as follows: KRAS-BRAF with CYPA (500 nM) interaction assay (TR-FRET), G12C. It counts as biochemical. As for the experimental part: as §3
Experiment [6] has as its system phosphorylation of ERK, KRAS G12C in NCJ-H358 cells. The experiment is described as follows: pERK inhibition assay, KRAS G12C. In kind it is cell-based, human. Particulars: 4 hours. How it is done: as §4, §5, §6
[7] abbreviates: Homo sapiens, SW-620, SW620, 4 hours.

Sequence of KRAS G12V binding to BRAF (P01116-2 other isoform, or with tags, fused parts or gaps G12V): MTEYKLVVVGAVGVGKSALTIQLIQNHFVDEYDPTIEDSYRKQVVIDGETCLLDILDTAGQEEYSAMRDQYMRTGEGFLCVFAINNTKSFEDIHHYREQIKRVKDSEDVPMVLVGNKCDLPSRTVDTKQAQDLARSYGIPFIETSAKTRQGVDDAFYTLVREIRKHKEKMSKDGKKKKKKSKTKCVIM
Sequence of KRAS G12V binding to BRAF (P62937 whole entry): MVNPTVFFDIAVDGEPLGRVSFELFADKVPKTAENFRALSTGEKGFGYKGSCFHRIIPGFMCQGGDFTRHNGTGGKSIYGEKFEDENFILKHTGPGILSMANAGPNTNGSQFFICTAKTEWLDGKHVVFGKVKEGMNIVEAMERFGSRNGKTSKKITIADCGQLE
Sequence of KRAS G12C-BRAF complex (P01116-2 other isoform, or with tags, fused parts or gaps G12C): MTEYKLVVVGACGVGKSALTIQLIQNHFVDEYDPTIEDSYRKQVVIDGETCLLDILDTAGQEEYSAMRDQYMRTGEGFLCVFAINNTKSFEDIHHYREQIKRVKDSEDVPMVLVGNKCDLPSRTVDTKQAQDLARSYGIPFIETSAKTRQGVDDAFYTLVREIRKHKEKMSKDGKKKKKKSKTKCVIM
Sequence of KRAS G12C-BRAF complex (P62937 whole entry): as the sequence (P62937 whole entry) above
Sequence of KRAS G12D binding to BRAF (P01116-2 other isoform, or with tags, fused parts or gaps G12D): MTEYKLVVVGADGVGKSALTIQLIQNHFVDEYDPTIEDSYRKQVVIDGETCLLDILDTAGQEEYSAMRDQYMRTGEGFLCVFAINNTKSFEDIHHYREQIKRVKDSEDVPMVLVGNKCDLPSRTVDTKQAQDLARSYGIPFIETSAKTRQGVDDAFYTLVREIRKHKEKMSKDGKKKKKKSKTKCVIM
Sequence of KRAS G12D binding to BRAF (P62937 whole entry): as the sequence (P62937 whole entry) above

Regarding `CO[C@@H](C)c1ncc(N2CCN(CC(F)(F)F)CC2)cc1-c1c2c3cc(c(F)cc3n1CC(F)(F)F)-c1csc(n1)C[C@H](NC(=O)[C@H](C(C)C)N1CCC3(CCN(C(=O)[C@H](F)Cl)CC3)C1=O)C(=O)N1CCC[C@H](N1)C(=O)OCC(C)(C)C2` (atropisomer, axis not shown; (M)) [Example 47, (2S)-2-[8-[(2R)-2-chloro-2-fluoro-acetyl]-1-oxo-2,8-diazaspiro[4.5]decan-2-yl]-N-[(7S,13S)-24-fluoro-(20M)-20-[2-[(1S)-1-methoxyethyl]-5-[4-(2,2,2-trifluoroethyl)piperazin-1-yl]-3-pyridyl]-17,17-dimethyl-8,14-dioxo-21-(2,2,2-trifluoroethyl)-15-oxa-4-thia-9,21,27,28-tetrazapentacyclo[17.5.2.1^2,5.1^9,13.0^22,26]octacosa-1(25),2,5(28),19,22(26),23-hexaen-7-yl]-3-methyl-butanamide], the IC50 in the experiment with SW620 (ATCC-CCL-227) (Homo sapiens, SW-620) was > 5000 nM; in experiment [1], > 10000 nM; in experiment [2] (Homo sapiens), 30 nM; in experiment [3] (Homo sapiens) it was > 5000 nM; in experiment [4], > 10000 nM; in experiment [5] (setting [7]), 176 nM. The IC50 on KRAS G12C-BRAF complex came out at 79 nM; in experiment [6] (Homo sapiens), 26 nM.
On to `CCn1c(-c2cc(N3CCN(CC(F)(F)F)CC3)cnc2[C@H](C)OC)c2c3cc(c(F)cc31)-c1csc(n1)C[C@H](NC(=O)[C@H](C(C)C)N1CC[C@]3(CCN(C(=O)[C@H](F)Cl)C3)C1=O)C(=O)N1CCC[C@H](N1)C(=O)OCC(C)(C)C2` [Example 38, (2S)-2-[(5S)-7-[(2R)-2-chloro-2-fluoro-acetyl]-1-oxo-2,7-diazaspiro[4.4]nonan-2-yl]-N-[(7S,13S)-21-ethyl-24-fluoro-(20M)-20-[2-[(1S)-1-methoxyethyl]-5-[4-(2,2,2-trifluoroethyl)piperazin-1-yl]-3-pyridyl]-17,17-dimethyl-8,14-dioxo-15-oxa-4-thia-9,21,27,28-tetrazapentacyclo[17.5.2.1^2,5.1^9,13.0^22,26]octacosa-1(25),2,5(28),19,22(26),23-hexaen-7-yl]-3-methyl-butanamide], for which the IC50 in the experiment on SW620 (ATCC-CCL-227) was 103 nM; in experiment [1] it was 910 nM; in experiment [2] it was < 1 nM; in experiment [3], 223 nM; in experiment [4], 3300 nM; in experiment [5] (SW620, 4 hours), 45 nM. Moreover, the IC50 at KRAS G12C-BRAF complex turned out to be 32 nM; in experiment [6] it was 1 nM.
Consider `CCn1c(-c2cc(N3CCN(C)CC3)cnc2[C@H](C)OC)c2c3cc(c(F)cc31)-c1csc(n1)C[C@H](NC(=O)[C@@H](COC1CN(C(=O)[C@H](F)Cl)C1)C(C)C)C(=O)N1CCC[C@H](N1)C(=O)OCC(C)(C)C2` (atropisomer, axis not shown; (M)) [Example 40, (2R)-2-[[1-[(2R)-2-chloro-2-fluoro-acetyl]azetidin-3-yl]oxymethyl]-N-[(7S,13S)-21-ethyl-24-fluoro-(20M)-20-[2-[(1S)-1-methoxyethyl]-5-(4-methylpiperazin-1-yl)-3-pyridyl]-17,17-dimethyl-8,14-dioxo-15-oxa-4-thia-9,21,27,28-tetrazapentacyclo[17.5.2.1^2,5.1^9,13.0^22,26]octacosa-1(25),2,5(28),19,22(26),23-hexaen-7-yl]-3-methyl-butanamide], for which the IC50 was 63 nM in the experiment with SW620 (ATCC-CCL-227) (Homo sapiens, SW-620); > 10000 nM in experiment [1]; < 1 nM in experiment [2] (Homo sapiens); 1110 nM in experiment [3] (Homo sapiens); > 10000 nM in experiment [4]; 23 nM in experiment [5] (setting [7]). For the same molecule, the IC50 turned out to be 108 nM at KRAS G12C-BRAF complex and 10 nM in experiment [6] (Homo sapiens).
